Reference: patent US20240390328A1, “PHARMACEUTICAL COMPOSITION CONTAINING AS ACTIVE INGREDIENT COMPOUND CONJUGATED TO G4 STRUCTURES OF CORONAVIRUSES FOR PREVENTION OR TREATMENT OF CORONAVIRUS INFECTIOUS DISEASES” (priority 2020, published 2024)
Where two headings read alike, the source gives them in different places.

Key:
[1] = tested on: HCoV-OC43; experiment: HCoV-OC43 dose response curve analysis, virion production (plaque assay), HCT-8 cells; assay type: cell-based; details: Betacoronavirus 1, OC43, 0.05 MOI, 72 hours after infection
[2] = tested on: SARS-COV-2 RNA G4, position 22316 (Surface glycoprotein); experiment: CD thermal melting analysis, G4 No. 16; assay type: binding; details: G4 No. 16, position 22316, Surface glycoprotein; 15 μM RNA G4, 30 μM compound
Description: (§1) For melting, the samples were heated at 25 to 95° C. at 2° C./min with a data pitch of 0.5° C. CD melting analyses were performed with and without G4-binding compounds. The ratio of RNA: G4-binding compound was set to a molar ratio of 1:2. 15 μM RNA G4 was treated with 30 μM G4-binding compound and incubated at room temperature in a buffer comprising 10 mM Tris-HCl (pH 7.5) and 100 mM KCl for 30 minutes. Ellipticity was measured at 265 nm. Thereafter, data were normalized and plotted in OriginPro 2017 to calculate Tm values.
(§2) In addition, 15 μM RNA G4 was treated with 30 μM compound and incubated, and a CD thermal melting curve of RNA G4 (15 μM) was obtained in the presence or absence of the G4-binding compound. Furthermore, the effect of G4-binding compounds on the stability of SARS-COV-2 G4 was confirmed by measuring the difference in melting temperature (ΔTm). The results are illustrated in FIGS. 6A and 6B.

[3] = tested on: SARS-COV-2 RNA G4, position 24268 (Surface glycoprotein); experiment: CD thermal melting analysis, G4 No. 18; assay type: binding; details: G4 No. 18, position 24268, Surface glycoprotein; 15 μM RNA G4, 30 μM compound
Description: as §1, §2

[4] = tested on: SARS-COV-2 RNA G4, position 25197 (Surface glycoprotein); experiment: CD thermal melting analysis, G4 No. 19; assay type: binding; details: G4 No. 19, position 25197, Surface glycoprotein; 15 μM RNA G4, 30 μM compound
Description: as §1, §2

[5] = tested on: SARS-COV-2 RNA G4, position 1574 (NsP2); experiment: CD thermal melting analysis, G4 No. 4; assay type: binding; details: G4 No. 4, position 1574, NsP2; 15 μM RNA G4, 30 μM compound
Description: as §1, §2

[6] = tested on: SARS-COV-2 RNA G4, position 25951 (ORF3a protein); experiment: CD thermal melting analysis, G4 No. 20; assay type: binding; details: G4 No. 20, position 25951, ORF3a protein; 15 μM RNA G4, 30 μM compound
Description: as §1, §2

[7] = tested on: SARS-COV-2 RNA G4, position 29234 (Nucleocapsid protein); experiment: CD thermal melting analysis, G4 No. 25; assay type: binding; details: G4 No. 25, position 29234, Nucleocapsid protein; 15 μM RNA G4, 30 μM compound
Description: as §1, §2

[8] = tested on: SARS-COV-2 RNA G4, position 28781 (Nucleocapsid protein); experiment: CD thermal melting analysis, G4 No. 22; assay type: binding; details: G4 No. 22, position 28781, Nucleocapsid protein; 15 μM RNA G4, 30 μM compound
Description: as §1, §2

[9] = tested on: SARS-COV-2; experiment: microbe, parasite or virus in culture; assay type: cell-based; details: Severe acute respiratory syndrome coronavirus 2; Vero cells, 0.0125 MOI, 24 hours; read-out: IC50, suppressing SARS-COV-2 infection (N protein expression)
[10] = tested on: N1-WT-G4-353 (Nsp1 G4); experiment: In-vitro transcription/translation (IVT) analysis, EYFP reporter western blot, N1-WT-G4-353; assay type: biochemical, SARS-COV-2
[11] = tested on: N1-WT-G4-3467 (Nsp3 G4); experiment: In-vitro transcription/translation (IVT) analysis, EYFP reporter western blot, N1-WT-G4-3467; assay type: biochemical, SARS-COV-2; details: N1-WT-G4-3467, compound at 15 to 50 μM
[12] = tested on: HEK293T cells; experiment: Cell viability analysis (EZ Cytox), HEK293T cells; assay type: cell-based, Human; details: up to 75 μM
Description: (§3) Human embryonic kidney (HEK293T) cells and Vero cells were maintained in high-glucose Dulbecco's Modified Eagle's Medium (DMEM) supplemented with 10% fetal bovine serum (FBS) and 1% penicillin-streptomycin, and cultured in a humidified incubator at 37° C. and 5% CO2.
(§4) Cytotoxicity was analyzed using an EZ Cytox assay kit (DogenBio, Korea). HEK293T and Vero cells were put into a 96-well plate at a density of 2×10^4 cells/well in a medium volume of 100 μl/well and cultured at 37° C. for 24 hours. After 24 hours, the cells were treated with the G4-binding compound at various concentrations (0.1, 0.5, 1, 2.5, 5.5, 7.5, 10, 25, 50, and 75 μM) and cultured at 37° C. for 24 hours or 48 hours. Cell viability (%) was calculated by measuring the absorbance value at 455 nm (Luminescence multi-mode microplate reader Synergy™ Neo2) and using the following Equation 1. All experiments were performed in triplicate, and cells untreated with the compound were used as a control. DMEM with the EZ Cytox reagent was used as a blank.
(§5) The toxicity of PDS and PhenDC3 was confirmed in HEK293T cells and Vero cells. The results are illustrated in FIGS. 7A to 7D.

[13] = tested on: SARS-COV-2; experiment: microbe, parasite or virus in culture; assay type: cell-based; details: Severe acute respiratory syndrome coronavirus 2, Vero cells, read-out: IC50, virion production
[14] = tested on: Vero cells; experiment: Cell viability analysis (EZ Cytox), Vero cells; assay type: cell-based; details: up to 75 μM after 48 hours
Description: as §3, §4, §5

[15] = tested on: N1-Mut-G4-3467; assay type: biochemical, SARS-COV-2; details: N1-Mut-G4-3467, 5, 15, 25 and 50 μM

Compound | Tm in ° C. with compound [2] [°C] | ΔTm [2] [°C] | Tm in ° C. with compound [3] [°C] | ΔTm [3] [°C] | Tm in ° C. with compound [4] [°C] | ΔTm [4] [°C] | Tm in ° C. with compound [6] [°C] | ΔTm [6] [°C] | Tm in ° C. with compound [7] [°C] | ΔTm [7] [°C] | further results
CN1CCC[C@H]1CCNC(=O)c1cn2c3c(c(N4CCC(c5cnccn5)C4)c(F)cc3c1=O)Oc1cc3ccccc3cc1-2 (stereo partly drawn) [CX-3543, 15-fluoro-N-[2-[(2S)-1-methylpyrrolidin-2-yl]ethyl]-18-oxo-14-(3-pyrazin-2-ylpyrrolidin-1-yl)-12-oxa-1-azapentacyclo [11.7.1.0^2,11.0^4,9.0^17,21]henicosa-2,4,6,8, 10, 13 (21), 14,16,19-nonaene-19-carboxamide] | 49.56 | 1.28 | 40.42 | −0.05 | 66.57 | −4.62 | 53.87 | 5.13 | 58.52 | −3.65 | IC50 [1]: 1.4 µM; Tm in ° C. with compound [5]: 53.43 °C; ΔTm [5]: 0.05 °C; Tm in ° C. with compound [8]: 82.9 °C; ΔTm [8]: 18.2 °C
NCCOc1cc(C(=O)Nc2cc(OCCN)c3ccccc3n2)nc(C(=O)Nc2cc(OCCN)c3ccccc3n2)c1 [PDS, 4-(2-aminoethoxy)-N2,N6-bis(4-(2-aminoethoxy)quinolin-2-yl)pyridine-2,6-dicarboxamide] | 55.62 | 7.34 | 46.11 | 5.64 | 68.63 | −2.56 | 92.26 | 43.52 | 80.2 | 18.03 | IC50 [9]: 9.45 µM; EYFP expression reduced by ([10]; N1-WT-G4-353, compound at 50 μM): 65%; suppressing EYFP reporter expression ([10]; N1-WT-G4-353, concentrations less than 50 μM): not effective; EYFP expression suppressed by [11]: 60%; cytotoxicity in HEK293T cells [12]: safe to use; IC50 ([13]; 24 hours after infection): 1.45 µM; IC50 ([13]; 48 hours after infection): 2.77 µM; cytotoxicity in Vero cells [14]: no cytotoxicity was observed; EYFP expression, concentration-dependent suppression [15]: not suppressed
